Experiments:
[1] = species: Homo sapiens; assay: The compound was tested for the inhibition of platelet aggregation; assay type: functional
[2] = species: Homo sapiens; assay: Measured by competition with fluorescent ligand L-762,745 for binding to resting human gel filtered platelets using flow cytometry; assay type: functional
[3] = species: Homo sapiens; assay: Tested for the inhibition of [125 I] -L 692,884 binding to purified GPIIb/IIIa coated onto yttrium silicate Scintillation proximity assay fluomicrospheres
[4] = test system: Canis familiaris; assay: Tested ex vivo inhibition of platelet aggregation after oral dose of 200 ug/kg through out 24 hr in dog; assay type: functional; conditions: Canis lupus familiaris
[5] = test system: Canis familiaris; assay: Tested ex vivo inhibition of platelet aggregation after oral dose of 200 ug/kg through out 8 hr in dog; assay type: functional; conditions: Canis lupus familiaris

| IC50 [1] [nM] | ED50 [3] [nM] | Structure (SMILES) | Kd [2] [nM] | inhibition in vivo at 0.2 mg/kg [4] [%] | inhibition in vivo at 0.2 mg/kg [5] [%] |
| --- | --- | --- | --- | --- | --- |
| 21 |  | O=C(NC[C@H](NS(=O)(=O)c1cccnc1)C(=O)O)c1cc2cc(CCCC3CCNCC3)sc2s1 |  |  |  |
| 13 | 0.04 | O=C(NC[C@H](NS(=O)(=O)c1cccs1)C(=O)O)c1cc2sc(CCC3CCNCC3)cc2s1 | 0.092 |  |  |
| 10 | 0.21 | CCCCS(=O)(=O)N[C@@H](CNC(=O)c1cc2sc(CCC3CCNCC3)cc2s1)C(=O)O | 3 |  |  |
| 500 |  | O=C(O)CCNC(=O)c1cc2sc(CCC3CCNCC3)cc2s1 | ~600 |  |  |
| 8 |  | O=C(NC[C@H](NS(=O)(=O)c1cccnc1)C(=O)O)c1cc2cc(CCC3CCNCC3)sc2s1 |  |  |  |
| 9 | 0.04 | O=C(NC[C@H](NS(=O)(=O)c1cccs1)C(=O)O)c1cc2cc(CCC3CCNCC3)sc2s1 | 0.15 |  |  |
| 23 |  | O=C(NC[C@H](NS(=O)(=O)c1cccnc1)C(=O)O)c1cc2cc(CC3CCNCC3)sc2s1 |  |  |  |
| 8 | 0.03 | O=C(NC[C@H](NS(=O)(=O)c1ccccc1)C(=O)O)c1cc2cc(CCC3CCNCC3)sc2s1 | 0.023 | 50 | > 80 |
| 76 | 1.9 | O=C(NCc1ccccc1)N[C@@H](CNC(=O)c1cc2cc(CCC3CCNCC3)sc2s1)C(=O)O | 94 |  |  |
| 32 | 0.12 | CCCCS(=O)(=O)N[C@@H](CNC(=O)c1cc2cc(CCC3CCNCC3)sc2s1)C(=O)O | 5.6 |  |  |
| 36 | 2.6 | O=C(NCc1ccccc1)N[C@@H](CNC(=O)c1cc2sc(CCC3CCNCC3)cc2s1)C(=O)O | 33 |  |  |
| 8 | 0.08 | O=C(NC[C@H](NS(=O)(=O)c1ccccc1)C(=O)O)c1cc2sc(CCC3CCNCC3)cc2s1 | 0.15 |  |  |
| 410 | 48 | O=C(O)CCNC(=O)c1cc2cc(CCC3CCNCC3)sc2s1 |  |  |  |
| 11 | 0.09 | O=C(NC[C@H](NS(=O)(=O)c1ccc(Cl)cc1)C(=O)O)c1cc2cc(CCC3CCNCC3)sc2s1 | 0.026 |  |  |

Reference: ChEMBL document CHEMBL1151496, “Nonpeptide GPIIB/IIIA inhibitors. 16. Thieno[2,3-b]thiophene -sulfonamides are potent inhibitors of platelet aggregation” (Bioorg Med Chem Lett, 1997)
